Here are results for eight compounds from US20200256869A1, “SYSTEMS AND METHODS FOR THE ASSESSMENT OF G-PROTEIN ACTIVATION” (UNIVERSITÉ DE MONTRÉAL, priority 2017, published 2020).

Common to all, as to type: cell-based
One assay has as its target T1, D3R (Homo sapiens, UniProt P35462).
T1 construct: expressed in transfected cells; host or cells: HEK293
Put plainly: Gz activation by D3R, Rap1GAP (SSS-AAA)-RlucII translocation to PM (BRET). The method, then: (§1) Cells were then directly seeded in 96-well plates pre-treated or not with poly-L-ornithine hydrobromide at a density of 35 000 cells per well. All experiments read in the Spark 10M reader were performed using non-treated plates.
(§2) BRET measurements 48-hours post transfection, cells were washed twice with pre-warmed Tyrode's buffer (140 mM NaCl, 2.7 mM KCl, 1 mM CaCl2, 12 mM NaHCO3, 5.6 mM D-glucose, 0.5 mM MgCl2, 0.37 mM NaH2PO4, 25 mM HEPES, pH 7.4) before being stimulated with various concentrations of ligands at either room temperature (RT) or 37° C., as indicated. The cell-permeable substrate, coelenterazine Purple I was added at a final concentration of 1 μM in Tyrode's buffer for at least 6 min (at 37° C.) to 10min (at RT) before BRET measurements.
(§3) Data Analysis. Estimation of the EC50 values were calculated using the GraphPad® Prism curve fitting program. The curves presented throughout this study, representing the best fits, and were also generated using this GraphPad® Prism program.
A general note: In BRET a luciferase serves as donor, and the signal depends on an acceptor being close.

Assay [1] has as its target T2, Dopamine D4 receptor (D4R) (Homo sapiens, UniProt P21917).
T2 construct: signal peptide […]; host or cells: HEK293
T2 sequence (P21917 1-419): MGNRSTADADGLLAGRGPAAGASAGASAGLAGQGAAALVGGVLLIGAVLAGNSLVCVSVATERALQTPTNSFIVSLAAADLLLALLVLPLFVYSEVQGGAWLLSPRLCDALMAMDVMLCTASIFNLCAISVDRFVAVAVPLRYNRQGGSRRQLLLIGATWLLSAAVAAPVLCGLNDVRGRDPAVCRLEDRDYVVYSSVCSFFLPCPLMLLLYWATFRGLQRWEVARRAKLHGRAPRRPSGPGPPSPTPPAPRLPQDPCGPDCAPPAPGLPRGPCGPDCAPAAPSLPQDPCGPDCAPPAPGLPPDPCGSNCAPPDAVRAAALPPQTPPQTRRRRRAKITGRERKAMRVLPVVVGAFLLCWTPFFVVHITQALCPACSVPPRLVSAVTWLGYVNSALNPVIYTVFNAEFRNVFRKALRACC
The following applies: HEK293, Rap1GAP (SSS-AAA)-RlucII, rGFP-CAAX, Gz, read-out: EC50, Gz activation. As for the experimental part:
as §1, §2, §3

Assay [2] deals with T3, thromboxane receptor (TPαR) (Homo sapiens, UniProt P21731).
T3 construct: host or cells: HEK293
T3 sequence (P21731 1-343): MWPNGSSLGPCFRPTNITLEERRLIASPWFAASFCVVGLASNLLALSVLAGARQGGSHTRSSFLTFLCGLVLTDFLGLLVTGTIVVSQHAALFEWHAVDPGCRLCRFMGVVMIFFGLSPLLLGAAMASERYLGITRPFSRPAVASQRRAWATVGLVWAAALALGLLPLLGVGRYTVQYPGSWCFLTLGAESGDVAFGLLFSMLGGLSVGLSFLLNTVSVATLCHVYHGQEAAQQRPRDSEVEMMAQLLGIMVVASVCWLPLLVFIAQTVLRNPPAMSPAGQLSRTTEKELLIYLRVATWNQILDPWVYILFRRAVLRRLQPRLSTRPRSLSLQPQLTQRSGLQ
Put plainly: TPαR-mediated G12 activation at the PM, PDZRG-RlucII BRET. The source says:
(§4) FIGS. 4D and 4E show DRCs of TPαR ligands on G12 (FIG. 4D) and 13 (FIG. 4E) activation at the PM using PDZRG-Rlucll. HEK293 cells cotransfected with thromboxane receptor (TPαR), PDZRG-Rlucll, rGFP-CAAX were stimulated with known full agonists (U46619, I-BOP, CTA2), with a partial agonist (U51605) and the antagonists I-SAP and SQ 29,558. Results were normalized and presented as % of I-BOP response (n=4) +/−SEM.
(§5) Transfection using Poly(ethylenimine) (PEI): Two days before the experiments, HEK293 cells were washed with PBS containing no calcium or magnesium, detached and transfected with the indicated plasmids using PEI as a transfecting agent (at a ratio of 3 to 1, PEI/DNA). Cells were then directly seeded in 96-well plates pre-treated or not with poly-L-ornithine hydrobromide at a density of 35 000 cells per well. All experiments read in the Spark 10M reader were performed using non-treated plates.
(§6) BRET measurements 48-hours post transfection, cells were washed twice with pre-warmed Tyrode's buffer (140 mM NaCl, 2.7 mM KCl, 1 mM CaCl2, 12 mM NaHCO3, 5.6 mM D-glucose, 0.5 mM MgCl2, 0.37 mM NaH2PO4, 25 mM HEPES, pH 7.4) before being stimulated with various concentrations of ligands at either room temperature (RT) or 37° C., as indicated. The cell-permeable substrate, coelenterazine Purple I was added at a final concentration of 1 μM in Tyrode's buffer for at least 6 min (at 37° C.) to 10min (at RT) before BRET measurements. Measurements were either taken on a Spark 10M reader (Tecan Life Sciences; donor: 360 nm/380 nm & acceptor: 505 nm/570 nm), a LB 941 multimode plate reader (Berthold Technologies; donor: 400/470-nm and acceptor: 515/520-nm filters) or a Synergy Neo (Biotek: (donor: 400/480 nm, acceptor: 515/530 nm). The BRET signal was determined by calculating the ratio of the light intensity emitted by the rGFP (acceptor) over the light intensity emitted by the Rlucll (donor). All the BRET measurements were performed at 37° C. in the Tristar reader (FIGS. 1-2M & FIGS. 2R-7F), at RT in a Spark 10M reader (FIGS. 2N-2Q & FIGS. 8B-8S) or at RT in a Synergy Neo (FIGS. 8T-8X).

Assay [3] addresses T3, thromboxane receptor (TPαR). Put plainly: TPαR-mediated G13 activation at the PM, PDZRG-RlucII BRET.
Excerpt: as §4, §5, §6

Assay [4] shares this target. Put plainly: TPαR-mediated G12 activation at the PM, P115RG-RlucII BRET.
Excerpt: (§7) FIGS. 5B and 5C show DRCs of TPαR ligands on G12 (FIG. 5B) and G13 (FIG. 5C) activation at the PM using P115RG-Rlucll. HEK293 cells cotransfected with thromboxane receptor (TPαR), P115RG-Rlucll, rGFP-CAAX were stimulated with U46619, I-BOP, CTA2, U51605, I-SAP and SQ 29,558. Results were normalized and presented as % of I-BOP response (n=4) +/−SEM.
as §5, §6

Assay [5] shares this target. Put plainly: TPαR-mediated G13 activation at the PM, P115RG-RlucII BRET.
Excerpt: as §7, §5, §6

Assay [6] has the same target. Put plainly: TPαR-mediated Gq activation at the PM, P63RG-RlucII BRET.
Excerpt: (§8) FIGS. 6J-6M show DRCs of TPαR ligands on Gq (FIG. 6J), G11 (FIG. 6K), G14 (FIG. 6L) and G15 (FIG. 6M) activation at the PM using P63RG-Rlucll under the optimal conditions determined in FIGS. 6B-6E. HEK293 cells cotransfected with thromboxane receptor (TPαR), P63RG-Rlucll, rGFP-CAAX were stimulated with U46619, I-BOP, CTA2, U51605, I-SAP and SQ 29,558. Results were normalized and presented as % of I-BOP response (between n=3 and n=5) +/−SEM.
as §5, §6

The target is the same in assay [7]. Put plainly: TPαR-mediated G11 activation at the PM, P63RG-RlucII BRET.
Excerpt: as §8, §5, §6

The target is the same in assay [8]. Put plainly: TPαR-mediated G14 activation at the PM, P63RG-RlucII BRET.
Excerpt: as §8, §5, §6

For assay [9] the target is unchanged. Put plainly: TPαR-mediated G15 activation at the PM, P63RG-RlucII BRET.
Excerpt: as §8, §5, §6

In another assay the target is T4, D1R (Homo sapiens, UniProt P21728).
T4 construct: expressed in transfected cells; host or cells: HEK293
T4 sequence (P21728 whole entry): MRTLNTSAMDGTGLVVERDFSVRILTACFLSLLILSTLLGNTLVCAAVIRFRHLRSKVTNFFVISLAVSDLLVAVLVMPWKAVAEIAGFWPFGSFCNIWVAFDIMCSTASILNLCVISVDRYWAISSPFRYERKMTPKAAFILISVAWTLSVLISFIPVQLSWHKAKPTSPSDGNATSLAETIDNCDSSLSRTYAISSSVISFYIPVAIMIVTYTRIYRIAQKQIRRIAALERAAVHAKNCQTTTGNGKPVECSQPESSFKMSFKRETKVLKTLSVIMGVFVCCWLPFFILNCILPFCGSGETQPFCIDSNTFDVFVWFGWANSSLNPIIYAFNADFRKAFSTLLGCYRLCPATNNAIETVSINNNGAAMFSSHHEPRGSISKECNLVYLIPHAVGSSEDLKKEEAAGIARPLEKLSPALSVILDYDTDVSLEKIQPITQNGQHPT
Put plainly: Gz activation by D1R, Rap1GAP (SSS-AAA)-RlucII translocation to PM (BRET). As for the experimental part:
as §1, §2, §3

Another assay has as its target T5, D5R (Homo sapiens, UniProt P21918).
T5 construct: expressed in transfected cells; host or cells: HEK293
Put plainly: Gz activation by D5R, Rap1GAP (SSS-AAA)-RlucII translocation to PM (BRET). As for the experimental part:
as §1, §2, §3

In the next assay the target is T6, D2R (Homo sapiens, UniProt P14416).
T6 construct: expressed in transfected cells; host or cells: HEK293
T6 sequence (P14416 whole entry): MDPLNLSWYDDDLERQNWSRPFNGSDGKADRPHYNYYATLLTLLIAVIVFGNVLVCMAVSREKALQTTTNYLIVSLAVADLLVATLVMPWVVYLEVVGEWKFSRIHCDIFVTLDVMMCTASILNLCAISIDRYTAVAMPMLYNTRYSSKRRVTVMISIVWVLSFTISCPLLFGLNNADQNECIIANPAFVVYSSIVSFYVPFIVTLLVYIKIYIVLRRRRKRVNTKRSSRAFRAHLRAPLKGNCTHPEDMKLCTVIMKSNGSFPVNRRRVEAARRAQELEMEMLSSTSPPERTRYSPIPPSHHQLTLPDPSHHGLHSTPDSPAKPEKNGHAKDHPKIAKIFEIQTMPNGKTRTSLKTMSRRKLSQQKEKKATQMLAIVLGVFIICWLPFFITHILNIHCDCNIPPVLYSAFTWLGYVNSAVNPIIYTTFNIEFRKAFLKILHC
Put plainly: Gz activation by D2R, Rap1GAP (SSS-AAA)-RlucII translocation to PM (BRET). As for the experimental part:
as §1, §2, §3

T5 sequence (P21918 whole entry): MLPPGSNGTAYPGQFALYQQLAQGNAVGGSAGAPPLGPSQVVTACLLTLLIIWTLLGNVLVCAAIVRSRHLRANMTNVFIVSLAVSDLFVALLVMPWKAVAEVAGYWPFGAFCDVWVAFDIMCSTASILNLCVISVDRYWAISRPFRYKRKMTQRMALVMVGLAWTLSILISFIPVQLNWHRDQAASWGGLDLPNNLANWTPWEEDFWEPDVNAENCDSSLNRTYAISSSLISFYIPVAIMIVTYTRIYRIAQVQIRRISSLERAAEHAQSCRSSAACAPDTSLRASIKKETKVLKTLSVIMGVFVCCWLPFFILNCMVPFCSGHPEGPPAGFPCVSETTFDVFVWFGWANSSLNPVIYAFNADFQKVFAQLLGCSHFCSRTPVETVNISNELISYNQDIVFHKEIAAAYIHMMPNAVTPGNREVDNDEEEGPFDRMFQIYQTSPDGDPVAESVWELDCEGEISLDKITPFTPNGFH
T1 sequence (P35462 whole entry): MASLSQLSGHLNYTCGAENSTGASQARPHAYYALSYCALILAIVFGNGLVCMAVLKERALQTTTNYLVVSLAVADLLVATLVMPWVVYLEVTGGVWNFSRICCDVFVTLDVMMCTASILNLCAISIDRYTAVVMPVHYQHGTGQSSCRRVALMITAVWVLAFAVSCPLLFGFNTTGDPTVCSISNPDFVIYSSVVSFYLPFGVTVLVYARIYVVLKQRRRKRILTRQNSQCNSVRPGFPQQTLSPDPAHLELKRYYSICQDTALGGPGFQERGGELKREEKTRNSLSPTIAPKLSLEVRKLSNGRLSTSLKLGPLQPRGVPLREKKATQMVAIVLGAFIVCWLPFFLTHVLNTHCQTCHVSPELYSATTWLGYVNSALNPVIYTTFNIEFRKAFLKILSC

As usually defined, the EC50 is the concentration needed to bring the measured effect to its halfway point. `Cc1cccc(NC(=O)CN2CCC(c3ccccn3)CC2)c1` [A412,997]: the concentration giving a half-maximal response (EC50) on D3R (HEK293, Rap1GAP (SSS-AAA)-RlucII, rGFP-CAAX, Gz) came out at 281 nM; in assay [1], 0.04 nM.

As to `CCCCC[C@H](O)/C=C/[C@H]1CC2CC(C2)[C@@H]1C/C=C\CCCC(=O)O` [CTA2], the “G12 activation, agonist character in words” value (shortened to “G12 activation”) in assay [2] and in [4] was “full agonists” throughout. The “G13 activation, agonist character in words” value (from here on “G13 activation … in words”) in assay [3] and in [5] was “full agonists” each time. In assay [6], the “Gq activation, agonist character in words” value (from here on “Gq activation … in words”) is “full agonists”. Also, the “G11 activation, agonist character in words” value (shortened to “G11 activation”) in assay [7] is “full agonists”. The “G14 activation, agonist character in words” value (from here on “G14 activation”) in [8] was “full agonists”. In addition, in [9], the “G15 activation, agonist character in words” value (“G15 activation” for short) is listed as “full agonists”.

In the case of `O=C(O)CCC/C=C\C[C@@H]1[C@@H](/C=C/[C@@H](O)COc2ccc(I)cc2)[C@H]2CC[C@@H]1O2` [I-BOP], the “G12 activation” value in assay [2] and in [4] was “full agonists” throughout. Also, the “G13 activation … in words” value in [3] and in assay [5] was “full agonists” each time. In [6], the “Gq activation … in words” value was “full agonists”. In assay [7], the “G11 activation” value was “full agonists”. Also, in assay [8], the “G14 activation” value is listed as “full agonists”. In addition, the “G15 activation” value in [9] was “full agonists”.

For the compound `CC1(C)[C@@H]2C[C@H](NS(=O)(=O)c3ccc(I)cc3)[C@@H](C/C=C\CCCC(=O)O)[C@H]1C2` [I-SAP], the entries for the “G12 activation” value in [2] and in [4] were “fails to induce significant G12 activation” and “neutral”, respectively. In addition, the “G13 activation, efficacy” value in assay [3] (normalized to I-BOP response) is recorded as 53 % of Max; in assay [5] (normalized to I-BOP response) it was 19 % of Max. Besides, in [6], the “Gq activation … in words” value is recorded as “fail to induce significant activation”. The “Gq activation, efficacy” value in assay [6] (rGFP-CAAX) is reported as 7 % of I-BOP max response. In assay [7], the “G11 activation” value was “fail to induce significant activation”. Further, the “G14 activation” value in assay [8] is listed as “fail to induce significant activation”. Moreover, the “G15 activation” value in assay [9] is “fail to induce significant activation”.

With `Cc1c(C2CCN(CCc3ccccc3)CC2)noc1-c1ccc(Cl)cc1` [L741,742], the “agonist properties (Gz activation), in words” value on D1R and at D5R was “did not show agonist nor inverse properties” throughout.

As to `O=C(O)CCC/C=C\C[C@@H]1[C@H](CNNC(=O)Nc2ccccc2)[C@H]2CC[C@@H]1O2` [SQ 29,558], the “G12 activation” value in assay [2] and in assay [4] was “not acting as a TPαR agonist” each time. Besides, the “G13 activation … in words” value in [3] and in assay [5] was “not acting as a TPαR agonist” each time. Besides, the “Gq activation … in words” value in [6] is on record as “fail to induce significant activation”. Also, the “G11 activation” value in assay [7] was “fail to induce significant activation”. Also, the “G14 activation” value in assay [8] is “fail to induce significant activation”. Besides, the “G15 activation” value in assay [9] is on record as “fail to induce significant activation”.

In the case of `CCCCC[C@H](O)/C=C/[C@@H]1[C@@H](C/C=C\CCCC(=O)O)[C@H]2CO[C@@H]1C2` [U46619], the “G12 activation” value in assay [2] and in assay [4] was “full agonists” in each case. Besides, the “G13 activation … in words” value in assay [3] and in [5] was “full agonists” throughout. In addition, in assay [6], the “Gq activation … in words” value was “full agonists”. Also, the “G11 activation” value in [7] was “full agonists”. Further, in assay [8], the “G14 activation” value is listed as “full agonists”. Further, the “G15 activation” value in assay [9] was “full agonists”.

In the case of `COc1ccccc1N1CCN(CCN(C(=O)C2CCCCC2)c2ccccn2)CC1` [WAY-100635], the “agonist properties (Gz activation), in words” value at D1R, at D2R, on D3R and at D5R was “only showed agonist properties on D4R” each time.
